Assay results as given in article PMC10788856, “Mimicking Nonribosomal Peptides from the Marine Actinomycete Streptomyces sp. H-KF8 Leads to Antimicrobial Peptides” (ACS Infectious Diseases, 2023).

Columns and labels:
[1] = system: E. coli CCUG31246; assay: DiSC(3)5 microscopy (membrane potential); assay type: cell-based; conditions: 1× MIC of peptide, polymyxin B 10 μg/mL; 10 min; 0.5 μM DiSC(3)5
From the text: Propidium iodide is a large organic molecule that is not suitable to detect smaller ion-conducting pores or channels induced by antimicrobials. To assess whether the peptides may form smaller membrane pores sufficient for the passage of ions, we tested their effects on the membrane potential using the fluorescence probe DiSC(3)5.[40] This dye accumulates in the cell membrane in a membrane potential-dependent manner and disassociates, when the membrane potential is dissipated. […] This effect can be clearly seen with polymyxin B (Figure 7b).
The membrane potential of E. coli CCUG31246 and E. coli MC4100 carrying pABCON2-fhuA ΔC/Δ4L was measured by DiSC(3)5 microscopy according to ref. ([40]) with minor modifications. Cells were grown in 1:10 BHI containing 50 μg/mL bovine serum albumin to an OD600 of 0.3 prior to antibiotic treatment with the respective peptides for 10 and 60 min. Samples were stained with 0.5 μM DiSC(3)5 for 15 min (added 5 min before adding antibiotics for the 10 min time point and after 45 min of antibiotic treatment for the 60 min time point). Stained samples were spotted on 1.2% agarose, sealed with a gene frame, and imaged immediately. Microscopy was performed as described above, and fluorescence intensity was analyzed with the same parameters used for propidium iodide detection.

[2] = system: Escherichia coli (CCUG 31246); assay: Minimum microbicidal concentration (MMC99) assay; assay type: cell-based, E. coli; conditions: BHI diluted 1/100, 37 °C, median, n = 3
Protocol: The microbicidal activity of the synthetic peptides was assessed against S. aureus (ATCC 12600; American Type Culture Collection, Manassas, VA, USA), Escherichia coli (CCUG 31246; Culture Collection, University of Gothenburg, Sweden), and Candida albicans (ATCC 64549/CCUG31028) using an MMC assay, as described previously by […] et al. (specific details in Supporting Information, pages 10, 11).[28] The assay was performed in BHI diluted 1/100 (BHI100). […] page 11: Table S5. Energy and structural ensembles of synthesized peptides. […] Energy -3887.06 -3620.88 -4968.42 -2163.76 -2646.75 Van der Waals solv. Energy 117.32 91.57 183.20 -88.88 -139.89 Mean RMSD* (Å), mean±SD […] Heavy atoms 1.87 ± 0.33 1.77 ± 0.50 0.98 ± 0.34 0.63 ±0.22 2.88 ±0.62 MMC99 activity including salt stability measurements Antimicrobial activity of L2 and L3 in the presence of NaCl. 1Table S6. Peptide MMC99 (μg/ml) sin NaCl S. aureus E.coli C. albicans (mM) 2[…] 0 50 25 25 85 - - - - - - >200 >200 >200 150 - - - - - - >200 >200 >200 3L 0 12.5 12.5 25 12,5 6.3 6.3 12.5 6.3 12.5 […] 150 >400 >400 (-)2 >400 >400 >400 >200 >200 >200 […] or 150 mM NaCl. L2 and L3 were serially diluted in twofold steps with a starting dilution of 200 μg/ml […] All sample dilutions were run in duplicates (L2) or triplicates (L3). 2 The growth of S. aureus at 24 h in BHI 100 with 85 or 150 mM NaCl was reduced. Minimum microbicidal concentration (MMC), killing 99% of the inoculum. All microorganisms were cultured in brain-heart infusion broth (BHI) overnight on a shaker at 37°C. The cultures were thereafter transferred to fresh BHI broth in volumes constituting 10% of total, and incubated for an additional 2 h to reach exponential growth phase. The bacterial cultures were washed once in BHI diluted 1/100 (BHI100), followed by resuspension in BHI100. The cell suspensions were diluted to a density of […] (bacteria) or 2x10^7 CFU/ml (yeast), as estimated by optical density measurement at 590 nm. […] Serum stability Figure S 133. […] A) peptide L2 B) peptide L3. C) peptide L3-K. D) peptide C3.

[3] = system: E. coli CCUG31246; assay type: cell-based; conditions: 1:10 BHI; 5 × 10^5 CFU/mL; 37 °C, 16 h; highest concentration 512 μg/mL; median, n = 3
Protocol: MICs were performed under the same growth conditions used for mode of action analysis following the guidelines issued by the Clinical Laboratory Standardization Institute (CLSI) with slight modifications. Serial two-fold dilutions of the peptides were prepared in 1:10 BHI in a sterile 96-well plate and subsequently inoculated with 5 × 10^5 CFU/mL of E. coli CCUG31246. […] The following MICs were obtained: C3: 512 μg/mL, L3: 64 μg/mL, and L3-K: 128 μg/mL. These concentrations were used for all mechanistic experiments. Polymyxin B was used as a positive control in all assays at a final concentration of 10 μg/mL.

[4] = system: E. coli CCUG31246; assay: Propidium iodide staining (pore formation); assay type: cell-based; conditions: 1× MIC of peptide, polymyxin B 10 μg/mL; 10 and 60 min
Protocol: Due to the overall similarity of the peptides’ cytological profiles to that of polymyxin B, we further tested their ability to form pores in the cell membrane. To this end, we used the fluorescence probe propidium iodide, which cannot cross intact membranes but can enter cells through pores of sufficient size.[39]
Pore formation was investigated with the fluorescence dye propidium iodide as described previously[56] with minor modifications. E. coli CCUG31246 was grown to an OD600 of 0.3 and subsequently treated with different peptides for 10 and 60 min. Samples were stained with 1 μg/mL propidium iodide for 15 min (added 5 min before adding antibiotics for the 10 min time point and after 45 min of antibiotic treatment for the 60 min time point), spotted on 1.2% agarose films, and sealed with a gene frame. Microscopy was performed as described above. The fluorescence intensity of the different samples was analyzed with MicrobeJ. For detection of bacterial cells from phase contrast images, parameters were set to an area of 1.5-max, length of 1-max, width 0.5–2.5, curvature 0–1.5, and an angularity of 0–0.5. Fluorescence intensity parameters were set to an area of 1.5-max, length of 1-max, and width 0.5–2.5. All other parameters remained at default settings.

[5] = system: E. coli CCUG31246; assay: Bacterial cytological profiling (DAPI, FM4-64, phase contrast); assay type: cell-based; conditions: polymyxin B 10 μg/mL
Protocol: To gain insight into the peptides’ antimicrobial mechanisms, bacterial cytological profiling was performed. This live-cell imaging method makes use of different fluorescent dyes and protein fusions together with phase contrast microscopy to assess the phenotype of bacterial cells after antibiotic treatment.[33] Single-cell analysis then gives insight into the extent and population heterogeneity of the observed phenotypic effects. In this study, we used the DNA dye DAPI and the membrane dye FM4-64 and analyzed the effects of the compounds on cell length, nucleoid compaction, and membrane morphology (Figures 6 and S15). […] In the preparation of mechanistic studies, MICs were determined. […]
Bacterial cytological profiling was performed according to Wenzel et al.[34] […] Stained samples were spotted on 1.2% agarose films, sealed with a gene frame, and immediately imaged using a Nikon Eclipse Ti2 inverted fluorescence live-cell imaging system equipped with a CFI Plan Apochromat DM Lambda 100X Oil objective (N.A. = 1.45 and W.D. = 0.13 mm), a Photometrics, PRIME BSI camera, a Lumencor Sola SE II FISH 365 light source, and an Okolab temperature incubation chamber. Images were obtained using the NIS elements AR software version 5.21.03 and were processed and analyzed with ImageJ.[53] Quantification of microscopy images was performed using the ImageJ plugins ObjectJ[54] and MicrobeJ.[55] […]

Substance: polymyxin B [PolB, reference compound]
- membrane potential, DiSC(3)5 fluorescence, 10 min [1]: clear and immediate reduction in the DiSC(3)5 fluorescence intensity
- E. coli MMC99 2 h ([2]; 2 h): <1.6 µg/mL
- E. coli MMC99 6 h ([2]; 6 h): <1.6 µg/mL
- E. coli MMC99 24 h ([2]; 24 h): <1.6 µg/mL
- E. coli MIC [3]: 2.3 µg/mL
- propidium iodide uptake [4]: near-instantaneous uptake of the dye throughout the bacterial population
- cells with unstained (reduced FM4-64 membrane stain) phenotype after 10 min [5]: over 90%
